For data set [1], the system named is natural phosphodiester RNA strand. Kind of data set: Thermal denaturation (Tm) of duplexes with complementary RNA. In kind it is binding. The settings on record: for Tm, RNA: duplex; for Tm difference of duplex with RNA: relative to 2′-deoxy phosphodiester oligonucleotide (experiment 1). Here is the method: (§1) ^31P NMR spectra were obtained on a Varian 400 MHz spectrometer. ^31P NMR spectra were referenced against 85% aqueous phosphoric acid. Anion exchange HPLC was performed using a Dionex DX 500 Chromatography System, with a Pharmacia Biotech Mono Q HR 5/5 or 10/16 ion exchange columns. Ion exchange HPLC was performed on the Dionex DX 500 system, using a Pharmacia Mono Q HR 5/5 column. Buffer A and B were: 10 mM NaOH, pH12 and 10 mM NaOH, 1.5 M NaCl, pH12, respectively. Oligonucleotides were eluted using a 1.5%/min. linear gradient of buffer B in A; flow 0.5 mL/min. Mass spectral analysis was performed by Mass Consortium, San Diego, Calif. MALDI-TOF analysis of oligonucleotides was obtained using a PerSpective Biosystems Voyager Elite mass spectrometer with delayed extraction. Thermal dissociation experiments were conducted on a Cary Bio 100 UV-Vis spectrometer.
(§2) ^ad, r, and a correspond to the 2′-deoxy, 2′-ribo-fluoro and to 2′-arabino-fluoronucleosides respectively; p and n correspond to the internucleoside phosphodiester and N3′→P5′ phosphoramidate linkages, respectively; ^bmelting temperature, Tm (±0.5° C.), of the duplexes formed with natural phosphodiester ssDNA or RNA strands, or: ^etriplexes formed with dA/dT duplex part of d(A10C4T10) hairpin. Buffers: ^c150 mM NaCl, 10 mM sodium phosphate buffer pit 7.4—first number, or in: ^dthe same buffer containing an additional 10 mM magnesium chloride—second number; n.o or n.d—the melting transitions and Tm's were not observed or not determined, respectively.
(§3) The ability of N3′→P5′ phosphoramidate 2′-arabino-fluorooligonucleotides to form complexes with complementary DNA and RNA strands was examined and compared with related oligonucleotide analogues using thermal denaturation experiments. […] (compare experiments 1 and 2, Table 1). […] Substitution of 2′-deoxy-3′-aminonucleosides by 2′-arabino-fluoro-3′-amino counterparts stabilized duplexes, by about 2-7° C., with DNA and RNA in a low ionic strength buffer. […] (compare experiments 3 and 6, Table 1).

Data set [2] concerns dA/dT duplex part of d(A10C4T10) hairpin. Kind of data set: Thermal denaturation (Tm) of triplexes with dsDNA. To be noted: for Tm, dsDNA: triplex. In kind it is binding. How it is done:
as §1
as §2, with “respectively. […]” for “respectively.”

Data set [3] concerns natural phosphodiester ssDNA. Kind of data set: Thermal denaturation (Tm) of duplexes with complementary DNA. To be noted: for Tm, DNA: duplex. In kind it is binding. How it is done: as §1, §2, §3
Data set [4] is described as follows: Stability in concentrated aqueous ammonia, judged by IE HPLC. In kind it is physicochemical. To be noted: 24 hours, 55° C., IE HPLC analysis. Here is the method: (§4) It was reported that the 2′-ribo-fluoropyrimidine containing oligonucleotides with N3′→P5′ phosphoramidate or with phosphodiester internucleoside linkages are somewhat labile during treatment with aqueous ammonia at 55° C. (Schultz et al., Nucl. Acids Res., 24:2966-2973, 1996; Krug et al., Nucleosides Nucleotides, 8:1473-1483, 1989). Under these basic conditions pyrimidine-O2 mediated elimination of the 2′-fluorine atom takes place, resulting in formation of 2,3′-O-anhydronucleosides and multiple products of their consequent reactions with aqueous ammonia, including 2′-arabino-hydroxyl nucleosides (Krug et al., Nucleosides Nucleotides, 8:1473-1483, 1989). In contrast, the prepared 2′-arabino-fluoro phosphoramidate oligonucleotides were stable under these conditions.

A short description of data set [5]: Acid stability, half-life at pH 3. In kind it is physicochemical. Here is the method: as §4
Where [6] appears, read: 150 mM NaCl, 10 mM sodium phosphate buffer (first number).
[7] abbreviates: same buffer with additional 10 mM magnesium chloride (second number).
[8] abbreviates: single value given, buffer not stated.

Regarding “a(Up^fUp^fUp^fUp^fUp^fUp^fUp^fUp^fUp^fT) [SEQ ID NO:5]”, the “Tm, RNA” value was found to be 27.5 °C in data set [1] (setting [6]) and 28.6 °C in data set [1] (setting [7]). For the same substance, the “Tm difference of duplex with RNA” value in data set [1] is 8.3-9.6 °C. The entries for the “Tm, dsDNA” value in data set [2] (setting [6]) and in data set [2] (setting [7]) were less than 14 °C and 20.9 °C, respectively. For the same substance, the “Tm, DNA” value was determined as 17.0 °C in data set [3] (setting [6]) and 25.0 °C in data set [3] (setting [7]).

Turning to “d(UpUpUpUpUpUpUpUpUpT) (UUUUUUUUUT; contains 2 prime-deoxy nucleosides; test compounds) [SEQ ID NO:3, 2′-deoxy phosphodiester oligonucleotide]”, the results for the “Tm, RNA” value in data set [1] (setting [6]) and in data set [1] (setting [7]) were 17.9 °C and 20.3 °C, respectively. The “Tm, dsDNA” value in data set [2] (setting [6]) and in data set [2] (setting [7]) was “n.o;^c n.o^d” throughout. Moreover, the “Tm, DNA” value is 16.7 °C in data set [3] (setting [6]) and 24.6 °C in data set [3] (setting [7]).

With “a(Cn^fUn^fCn^fUn^fCn^fUn^fGnCn^fCn^f) (CUCUCUGCC; 2'-arabino-fluoro phosphoramidate backbone; contains 2 prime-arabino-fluoronucleosides; test compounds) [SEQ ID NO:10, mixed base 2′-arabino-fluoro phosphoramidate oligonucleotide]”, in data set [1] (setting [8]), the “Tm, RNA” value was found to be 66.8 °C.

For the substance “d(CnUnCnUnCnUnGnCnCn) (CUCUCUGCC; DNA, backbone, methylation of C and T or U not given here; phosphoramidate linkages) [SEQ ID NO:9, mixed base 2′-deoxy phosphoramidate oligonucleotide]”, the “Tm, RNA” value in data set [1] (setting [8]) turned out to be 66.7 °C.

In the case of “dT-r(Un^fUn^fUn^fUn^fUn^fUn^fUn^fUn^f Un^f) (TUUUUUUUUU; 2′-ribo-fluoro phosphoramidate; 5′ dT; contains 2 prime-deoxy and 2 prime-ribo- fluoronucleotides; test compounds) [SEQ ID NO:7, 2′-ribo-fluoro N3′→P5′ phosphoramidate oligonucleotide]”, the “Stability on exposure to concentrated aqueous ammonia” value in data set [4] is reported as “converted into a very complex mixture of products”. Besides, the “Tm, RNA” value in data set [1] (setting [6]) is 55.5 °C; in data set [1] (setting [7]), 61.9 °C. The “Tm difference of complexes with both DNA and RNA strands” value in data set [1] (most stable complexes, compare experiments 5, 6 and 7) is 14-21 °C. For the same substance, the “Tm, dsDNA” value in data set [2] (setting [6]) is 42.2 °C; in data set [2] (setting [7]) it was 54.1 °C. Also, the “Tm, DNA” value in data set [3] (setting [6]) came out at 37.4 °C; in data set [3] (setting [7]) it was 56.3 °C.

As to “d(UnUnUnUnUnUnUnUnUnT) (UUUUUUUUUT; N3′→P5′ phosphoramidate; contains 2 prime-deoxy nucleosides; test compounds) [SEQ ID NO:6, 2′-deoxy N3′→P5′ phosphoramidate oligonucleotide]”, in data set [1], the “Effect of increasing buffer ionic strength on Tm of duplex with RNA” value was “no effect”. Also, the “Tm, RNA” value in data set [1] (setting [6]) is 38.1 °C; in data set [1] (setting [7]) it was 47.2 °C. In data set [1] (relative to 2′-arabino-fluoro phosphodiester SEQ ID NO:5 (experiments 3 and 6), DNA and RNA), the “Tm difference of duplexes” value was 8.7-12.5 °C. The “Tm, dsDNA” value in data set [2] (setting [6]) is on record as <15; n.d ° C. Besides, the “Tm, DNA” value came to 18.5 °C in data set [3] (setting [6]) and 38.2 °C in data set [3] (setting [7]).

Regarding “dT-a(Un^fUn^fUn^fUn^fUn^fUn^fUn^fUn^f Un^f) (TUUUUUUUUU; 2′-arabino-fluoro phosphoramidate; 5′ dT; contains 2 prime-deoxy and 2 prime-arabino- fluoronucleosides; test compounds) [SEQ ID NO:8, 2′-arabino-fluoro N3′→P5′ phosphoramidate decanucleotide]”, the “Stability on exposure to concentrated aqueous ammonia” value in data set [4] is “practically intact”. Also, the “Tm, RNA” value in data set [1] (setting [6]) and in data set [1] (setting [7]) was 40.0; 40.0 °C each time. For the same substance, the “Tm, dsDNA” value was determined as 22.0 °C in data set [2] (setting [6]) and 31.2 °C in data set [2] (setting [7]). For the same substance, the “Relative stability of triplex with dsDNA” value in data set [2] (versus SEQ ID NO:6 and SEQ ID NOs:3-5, but not SEQ ID NO:7) was “more stable triplex”. Besides, the “Tm, DNA” value in data set [3] (setting [6]) was 25.7 °C; in data set [3] (setting [7]), 37.0 °C. Moreover, the “Base and acid stability (summary statement)” value in data set [5] is “base and acid stable”.

“r(Up^fUp^fUp^fUp^fUp^fUp^fUp^fUp^fUp^fT) (UUUUUUUUUT; 2′-ribo-fluoro; contains 2 prime-ribo-fluoronucleosides; test compounds) [SEQ ID NO:4, 2′-ribo-fluoro phosphodiester decanucleotide]”: the “Tm, RNA” value in data set [1] (setting [6]) was 32.9 °C; in data set [1] (setting [7]) it was 36.6 °C. Besides, in data set [1], the “Tm difference of duplex with RNA” value was 15.0-16.3 °C. Moreover, the “Tm, dsDNA” value in data set [2] (setting [6]) and in data set [2] (setting [7]) was “n.o; n.o” throughout. Besides, the “Tm, DNA” value in data set [3] (setting [6]) is “n.o”; in data set [3] (setting [7]), 18.0 °C. For the same substance, the “Tm difference of complex with DNA (destabilization)” value in data set [3] (relative to 2′-deoxy phosphodiester oligonucleotide (experiments 1 and 2)) is −6.7-16 °C.
